Paper PMC8333425, “Discovery of a dual Ras and ARF6 inhibitor from a GPCR endocytosis screen” (Nature Communications, 2021)

How the values were obtained:
Experiment in all cases: KINOMEscan kinase binding assay
[1] = target: T1, 384 kinases from the human genome (Homo sapiens, UniProt P36894); settings: kinase BMPR1A (Entrez BMPR1A)
T1 construct: purchased Eurofin/DiscoverX
Excerpt: (§1) We reasoned that because internalizing AT1R and its targeting to intracellular compartments can support continued MAPK signaling, and since 21 inhibits receptor internalization, it should also impede to some extent ERK1/2 activation. […] Receptor-mediated ERK1/2 signaling can involve upstream kinases such as PKC, BRAF, and MEK1[35],[36]. […] To exclude other kinases potentially involved in ERK1/2 and Akt activation as targets of 21, we ran a kinase binding assay (KINOMEscan™) on 384 kinases from the human genome. Remarkably, a very high selectivity score S(10) of 0.008 was found (Supplementary Data 3).
(§2) The chemical library used for initial screening was from Chembridge DiverSet™ (60,000 compounds), Maybridge HitFinder™ (16,000 compounds), Maybridge (selected, 16,000 compounds), SPECS (selected, 16000 compounds), Microsource Discovery Spectrum (2000 compounds), Biomol (natural products, 500 compounds), Prestwick (commercialized products, 1120 compounds), SIGMA LopacTM (1280 compounds) and internal collection (synthesized at Université de Montréal-IRIC, ~4000 compounds). Compounds were all assigned an Université de Montréal number (UM) for internal use. Screen was performed at IRIC HTS facility. KINOMEscan™ profiling was serviced by Eurofin/DiscoverX (San Diego, USA).
(§3) Description of Additional Supplementary Files […]
(§4) File Name: Supplementary Data 3
(§5) Description: KINOMEscan results. Compound 21’s effect was tested on 384 kinases. Data represent kinases binding to their ligands in presence of 10 µM of 21, as compared to DMSO (100%). Results are from one experiment and represent the average of duplicates. Three kinases (FLT3, KIT, and PDGFRB) out of 384 were more than 90% affected (selectivity score S(10) of 0.008). […]

[2] = target: T2, 384 kinases from the human genome (Homo sapiens, UniProt Q9P286); settings: kinase PAK7 (Entrez PAK7)
T2 construct: purchased Eurofin/DiscoverX
Excerpt: as §1, §2, §3, §4, §5

[3] = target: T3, 384 kinases from the human genome (Homo sapiens, UniProt Q86UX6); settings: kinase YANK3 (Entrez STK32C)
T3 construct: purchased Eurofin/DiscoverX
Excerpt: as §1, §2, §3, §4, §5

[4] = target: T4, 384 kinases from the human genome (Homo sapiens, UniProt P48736); settings: kinase PIK3CG (Entrez PIK3CG)
T4 construct: purchased Eurofin/DiscoverX
Excerpt: as §1, §2, §3, §4, §5

[5] = target: T5, 384 kinases from the human genome (Homo sapiens, UniProt O00444); settings: kinase PLK4 (Entrez PLK4)
T5 construct: purchased Eurofin/DiscoverX
Excerpt: as §1, §2, §3, §4, §5

[6] = target: T6, 384 kinases from the human genome (Homo sapiens, UniProt Q9NYY3); settings: kinase PLK2 (Entrez PLK2)
T6 construct: purchased Eurofin/DiscoverX
Excerpt: as §1, §2, §3, §4, §5

[7] = target: T7, 384 kinases from the human genome (Homo sapiens, UniProt Q13470); settings: kinase TNK1 (Entrez TNK1)
T7 construct: purchased Eurofin/DiscoverX
Excerpt: as §1, §2, §3, §4, §5

[8] = target: T8, 384 kinases from the human genome (Homo sapiens, UniProt Q9BX84); settings: kinase TRPM6 (Entrez TRPM6)
T8 construct: purchased Eurofin/DiscoverX
Excerpt: as §1, §2, §3, §4, §5

[9] = target: T9, 384 kinases from the human genome (Homo sapiens, UniProt Q9UL54); settings: kinase TAOK2 (Entrez TAOK2)
T9 construct: purchased Eurofin/DiscoverX
Excerpt: as §1, §2, §3, §4, §5

[10] = target: T10, 384 kinases from the human genome (Homo sapiens, UniProt Q16659); settings: kinase ERK3 (Entrez MAPK6)
T10 construct: purchased Eurofin/DiscoverX
Excerpt: as §1, §2, §3, §4, §5

[11] = target: T11, 384 kinases from the human genome (Homo sapiens, UniProt Q13164); settings: kinase ERK5 (Entrez MAPK7)
T11 construct: purchased Eurofin/DiscoverX
Excerpt: as §1, §2, §3, §4, §5

[12] = target: T12, 384 kinases from the human genome (Homo sapiens, UniProt P48730); settings: kinase CSNK1D (Entrez CSNK1D)
T12 construct: purchased Eurofin/DiscoverX
Excerpt: as §1, §2, §3, §4, §5

[13] = target: T13, 384 kinases from the human genome (Homo sapiens, UniProt Q00535); settings: kinase CDK5 (Entrez CDK5)
T13 construct: purchased Eurofin/DiscoverX
Excerpt: as §1, §2, §3, §4, §5

[14] = target: T14, 384 kinases from the human genome (Homo sapiens, UniProt P68400); settings: kinase CSNK2A1 (Entrez CSNK2A1)
T14 construct: purchased Eurofin/DiscoverX
Excerpt: as §1, §2, §3, §4, §5

[15] = target: T15, 384 kinases from the human genome (Homo sapiens, UniProt Q16566); settings: kinase CAMK4 (Entrez CAMK4)
T15 construct: purchased Eurofin/DiscoverX
Excerpt: as §1, §2, §3, §4, §5

[16] = target: T16, 384 kinases from the human genome (Homo sapiens, UniProt Q13554); settings: kinase CAMK2B (Entrez CAMK2B)
T16 construct: purchased Eurofin/DiscoverX
Excerpt: as §1, §2, §3, §4, §5

[17] = target: T17, 384 kinases from the human genome (Homo sapiens, UniProt Q9BRS2); settings: kinase RIOK1 (Entrez RIOK1)
T17 construct: purchased Eurofin/DiscoverX
Excerpt: as §1, §2, §3, §4, §5

[18] = target: T18, 384 kinases from the human genome (Homo sapiens, UniProt P54646); settings: kinase AMPK-alpha2 (Entrez PRKAA2)
T18 construct: purchased Eurofin/DiscoverX
Excerpt: as §1, §2, §3, §4, §5

[19] = target: T19, 384 kinases from the human genome (Homo sapiens, UniProt Q9H2X6); settings: kinase HIPK2 (Entrez HIPK2)
T19 construct: purchased Eurofin/DiscoverX
Excerpt: as §1, §2, §3, §4, §5

[20] = target: T20, 384 kinases from the human genome (Homo sapiens, UniProt P17612); settings: kinase PKAC-alpha (Entrez PRKACA)
T20 construct: purchased Eurofin/DiscoverX
Excerpt: as §1, §2, §3, §4, §5

[21] = target: T21, 384 kinases from the human genome (Homo sapiens, UniProt P32298); settings: kinase GRK4 (Entrez GRK4)
T21 construct: purchased Eurofin/DiscoverX
Excerpt: as §1, §2, §3, §4, §5

[22] = target: T22, 384 kinases from the human genome (Homo sapiens, UniProt P49841); settings: kinase GSK3B (Entrez GSK3B)
T22 construct: purchased Eurofin/DiscoverX
Excerpt: as §1, §2, §3, §4, §5

[23] = target: T23, 384 kinases from the human genome (Homo sapiens, UniProt Q96GD4); settings: kinase AURKB (Entrez AURKB)
T23 construct: purchased Eurofin/DiscoverX
Excerpt: as §1, §2, §3, §4, §5

[24] = target: T24, 384 kinases from the human genome (Homo sapiens, UniProt Q8NEV4); settings: kinase MYO3A (Entrez MYO3A)
T24 construct: purchased Eurofin/DiscoverX
Excerpt: as §1, §2, §3, §4, §5

[25] = target: T25, 384 kinases from the human genome (Homo sapiens, UniProt P49840); settings: kinase GSK3A (Entrez GSK3A)
T25 construct: purchased Eurofin/DiscoverX
Excerpt: as §1, §2, §3, §4, §5

[26] = target: T26, 384 kinases from the human genome (Homo sapiens, UniProt P54753); settings: kinase EPHB3 (Entrez EPHB3)
T26 construct: purchased Eurofin/DiscoverX
Excerpt: as §1, §2, §3, §4, §5

T17 sequence (Q9BRS2 whole entry): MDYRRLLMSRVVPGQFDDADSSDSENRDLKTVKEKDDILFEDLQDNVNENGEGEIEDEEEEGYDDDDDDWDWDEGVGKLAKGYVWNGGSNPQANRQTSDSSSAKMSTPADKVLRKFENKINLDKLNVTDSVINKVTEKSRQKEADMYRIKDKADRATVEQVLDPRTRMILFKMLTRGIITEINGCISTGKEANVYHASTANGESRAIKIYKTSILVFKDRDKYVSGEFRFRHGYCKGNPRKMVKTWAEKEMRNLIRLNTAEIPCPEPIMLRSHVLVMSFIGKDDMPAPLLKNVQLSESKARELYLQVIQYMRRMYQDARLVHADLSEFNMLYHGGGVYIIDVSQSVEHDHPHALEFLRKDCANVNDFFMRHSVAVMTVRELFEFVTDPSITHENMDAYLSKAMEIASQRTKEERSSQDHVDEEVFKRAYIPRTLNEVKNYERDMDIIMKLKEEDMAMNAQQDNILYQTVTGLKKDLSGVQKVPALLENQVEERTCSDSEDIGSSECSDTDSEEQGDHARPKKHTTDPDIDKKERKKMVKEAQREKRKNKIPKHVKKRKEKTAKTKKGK
T2 sequence (Q9P286 whole entry): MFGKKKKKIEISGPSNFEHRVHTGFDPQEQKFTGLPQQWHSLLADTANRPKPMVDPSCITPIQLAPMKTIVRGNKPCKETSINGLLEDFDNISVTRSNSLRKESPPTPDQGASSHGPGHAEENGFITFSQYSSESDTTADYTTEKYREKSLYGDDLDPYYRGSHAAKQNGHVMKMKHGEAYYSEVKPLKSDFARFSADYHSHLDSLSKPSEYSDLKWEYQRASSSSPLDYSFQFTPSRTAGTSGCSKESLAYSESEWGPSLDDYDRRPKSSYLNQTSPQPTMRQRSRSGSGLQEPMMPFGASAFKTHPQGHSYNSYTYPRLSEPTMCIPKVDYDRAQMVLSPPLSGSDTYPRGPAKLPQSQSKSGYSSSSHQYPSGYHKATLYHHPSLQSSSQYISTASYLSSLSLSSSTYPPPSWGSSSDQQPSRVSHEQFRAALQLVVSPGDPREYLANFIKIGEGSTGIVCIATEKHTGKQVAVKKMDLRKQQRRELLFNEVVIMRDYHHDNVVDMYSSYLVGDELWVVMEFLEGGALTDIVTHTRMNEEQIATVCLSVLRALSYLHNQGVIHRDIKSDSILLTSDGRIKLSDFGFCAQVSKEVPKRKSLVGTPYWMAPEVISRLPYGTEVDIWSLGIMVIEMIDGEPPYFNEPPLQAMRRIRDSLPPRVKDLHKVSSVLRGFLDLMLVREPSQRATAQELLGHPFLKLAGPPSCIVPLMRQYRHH
T6 sequence (Q9NYY3 whole entry): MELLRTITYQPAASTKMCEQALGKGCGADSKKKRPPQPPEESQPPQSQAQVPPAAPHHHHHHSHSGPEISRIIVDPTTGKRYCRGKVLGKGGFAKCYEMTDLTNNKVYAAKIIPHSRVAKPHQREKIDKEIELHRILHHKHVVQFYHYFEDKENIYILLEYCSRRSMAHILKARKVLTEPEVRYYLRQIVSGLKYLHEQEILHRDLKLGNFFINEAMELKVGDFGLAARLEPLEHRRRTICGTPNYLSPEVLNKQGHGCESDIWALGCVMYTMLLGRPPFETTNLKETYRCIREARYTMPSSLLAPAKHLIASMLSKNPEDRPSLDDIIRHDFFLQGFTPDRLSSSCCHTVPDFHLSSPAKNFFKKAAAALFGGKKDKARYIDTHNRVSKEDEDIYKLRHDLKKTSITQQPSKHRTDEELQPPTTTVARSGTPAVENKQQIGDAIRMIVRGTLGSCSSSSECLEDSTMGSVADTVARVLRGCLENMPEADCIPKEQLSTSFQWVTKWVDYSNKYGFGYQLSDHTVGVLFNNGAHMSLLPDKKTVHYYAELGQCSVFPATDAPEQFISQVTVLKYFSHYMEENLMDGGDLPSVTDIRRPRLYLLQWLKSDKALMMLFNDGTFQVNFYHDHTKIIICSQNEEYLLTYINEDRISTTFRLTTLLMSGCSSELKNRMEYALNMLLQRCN
T13 sequence (Q00535 whole entry): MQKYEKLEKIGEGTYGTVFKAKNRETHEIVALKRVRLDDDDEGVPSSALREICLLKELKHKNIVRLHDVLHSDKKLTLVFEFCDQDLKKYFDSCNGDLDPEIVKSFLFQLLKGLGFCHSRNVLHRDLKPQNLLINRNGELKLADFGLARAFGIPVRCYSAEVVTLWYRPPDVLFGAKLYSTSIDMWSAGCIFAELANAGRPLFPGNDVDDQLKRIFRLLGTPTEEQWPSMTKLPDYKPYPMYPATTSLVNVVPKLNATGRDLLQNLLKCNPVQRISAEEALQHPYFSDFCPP
T9 sequence (Q9UL54 whole entry): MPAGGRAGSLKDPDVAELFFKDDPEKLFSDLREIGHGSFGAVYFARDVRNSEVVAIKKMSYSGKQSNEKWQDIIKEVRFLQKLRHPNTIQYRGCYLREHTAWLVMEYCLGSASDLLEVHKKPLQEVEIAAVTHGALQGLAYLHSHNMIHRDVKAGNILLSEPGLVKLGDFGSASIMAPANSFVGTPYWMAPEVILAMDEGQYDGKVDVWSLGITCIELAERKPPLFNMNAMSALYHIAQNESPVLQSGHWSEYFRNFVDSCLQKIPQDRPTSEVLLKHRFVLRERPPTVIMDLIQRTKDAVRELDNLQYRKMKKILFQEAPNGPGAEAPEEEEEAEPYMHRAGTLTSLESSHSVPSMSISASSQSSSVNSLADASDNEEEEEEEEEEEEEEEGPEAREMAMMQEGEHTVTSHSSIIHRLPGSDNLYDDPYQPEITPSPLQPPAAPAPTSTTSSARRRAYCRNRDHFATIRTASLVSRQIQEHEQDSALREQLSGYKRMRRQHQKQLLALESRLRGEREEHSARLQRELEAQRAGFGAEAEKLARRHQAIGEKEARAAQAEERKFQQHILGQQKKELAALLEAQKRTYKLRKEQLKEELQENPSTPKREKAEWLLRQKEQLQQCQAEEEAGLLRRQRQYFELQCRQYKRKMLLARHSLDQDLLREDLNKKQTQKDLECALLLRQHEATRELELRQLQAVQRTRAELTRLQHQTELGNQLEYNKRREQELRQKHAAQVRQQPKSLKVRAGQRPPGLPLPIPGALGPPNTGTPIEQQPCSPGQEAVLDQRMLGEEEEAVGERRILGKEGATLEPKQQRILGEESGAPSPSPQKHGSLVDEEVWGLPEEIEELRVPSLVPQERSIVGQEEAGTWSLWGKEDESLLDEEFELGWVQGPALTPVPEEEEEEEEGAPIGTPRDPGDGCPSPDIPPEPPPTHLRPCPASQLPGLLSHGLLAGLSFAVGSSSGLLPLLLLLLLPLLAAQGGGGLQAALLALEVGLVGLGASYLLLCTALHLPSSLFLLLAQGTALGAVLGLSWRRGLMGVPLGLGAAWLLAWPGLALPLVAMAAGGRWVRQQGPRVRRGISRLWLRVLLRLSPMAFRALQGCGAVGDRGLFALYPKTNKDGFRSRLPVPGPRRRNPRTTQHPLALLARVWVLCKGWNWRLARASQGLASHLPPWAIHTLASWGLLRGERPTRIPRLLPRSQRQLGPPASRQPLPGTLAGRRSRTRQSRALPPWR
T18 sequence (P54646 whole entry): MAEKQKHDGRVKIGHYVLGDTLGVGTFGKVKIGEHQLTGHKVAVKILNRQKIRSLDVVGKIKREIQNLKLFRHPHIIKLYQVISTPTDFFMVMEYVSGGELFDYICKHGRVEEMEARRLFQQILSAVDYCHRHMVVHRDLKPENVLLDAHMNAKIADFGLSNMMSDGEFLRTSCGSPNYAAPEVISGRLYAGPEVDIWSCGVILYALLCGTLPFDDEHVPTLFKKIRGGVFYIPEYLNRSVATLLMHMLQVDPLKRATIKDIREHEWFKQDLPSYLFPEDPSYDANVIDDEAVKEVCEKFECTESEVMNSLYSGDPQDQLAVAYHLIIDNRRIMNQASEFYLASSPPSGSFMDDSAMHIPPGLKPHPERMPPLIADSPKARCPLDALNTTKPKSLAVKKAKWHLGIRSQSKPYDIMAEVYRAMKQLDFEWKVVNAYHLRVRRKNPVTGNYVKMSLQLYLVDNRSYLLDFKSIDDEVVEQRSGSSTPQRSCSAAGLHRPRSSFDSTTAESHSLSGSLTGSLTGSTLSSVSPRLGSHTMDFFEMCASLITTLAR
T3 sequence (Q86UX6 whole entry): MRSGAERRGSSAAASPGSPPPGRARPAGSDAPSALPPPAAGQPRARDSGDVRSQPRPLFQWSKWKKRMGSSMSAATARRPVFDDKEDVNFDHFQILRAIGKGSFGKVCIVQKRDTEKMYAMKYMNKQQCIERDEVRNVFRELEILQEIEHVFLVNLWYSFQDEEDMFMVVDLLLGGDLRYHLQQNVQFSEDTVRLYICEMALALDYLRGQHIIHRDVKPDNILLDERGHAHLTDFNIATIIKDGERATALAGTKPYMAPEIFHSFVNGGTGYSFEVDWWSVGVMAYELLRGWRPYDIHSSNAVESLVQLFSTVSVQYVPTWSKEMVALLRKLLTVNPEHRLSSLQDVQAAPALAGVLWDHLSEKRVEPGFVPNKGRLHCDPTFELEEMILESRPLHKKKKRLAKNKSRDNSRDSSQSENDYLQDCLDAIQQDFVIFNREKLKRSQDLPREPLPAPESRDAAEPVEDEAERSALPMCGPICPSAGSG
T15 sequence (Q16566 whole entry): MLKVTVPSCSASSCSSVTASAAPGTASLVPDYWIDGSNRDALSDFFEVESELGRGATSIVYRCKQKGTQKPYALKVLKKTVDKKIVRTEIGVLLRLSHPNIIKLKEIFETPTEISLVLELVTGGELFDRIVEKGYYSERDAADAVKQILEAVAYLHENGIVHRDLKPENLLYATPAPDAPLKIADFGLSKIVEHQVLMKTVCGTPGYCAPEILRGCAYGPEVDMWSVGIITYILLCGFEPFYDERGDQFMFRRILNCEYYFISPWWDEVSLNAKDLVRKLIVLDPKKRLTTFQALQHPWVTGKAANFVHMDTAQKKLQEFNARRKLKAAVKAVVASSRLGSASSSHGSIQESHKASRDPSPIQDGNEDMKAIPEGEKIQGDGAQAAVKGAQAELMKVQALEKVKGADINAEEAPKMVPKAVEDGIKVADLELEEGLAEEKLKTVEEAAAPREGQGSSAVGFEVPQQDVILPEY

Compound: CC(C)C(=O)N1CCN(c2ccc(NC(=O)c3cc4ccccc4o3)cc2Cl)CC1 [Compound 21]
- Percent Control [1]: 79%
- Percent Control [2]: 85%
- Percent Control [3]: 100%
- Percent Control [4]: 100%
- Percent Control [5]: 89%
- Percent Control [6]: 90%
- Percent Control [7]: 75%
- Percent Control [8]: 81%
- Percent Control [9]: 93%
- Percent Control [10]: 90%
- Percent Control [11]: 99%
- Percent Control [12]: 86%
- Percent Control [13]: 94%
- Percent Control [14]: 100%
- Percent Control [15]: 100%
- Percent Control [16]: 100%
- Percent Control [17]: 100%
- Percent Control [18]: 85%
- Percent Control [19]: 100%
- Percent Control [20]: 97%
- Percent Control [21]: 99%
- Percent Control [22]: 99%
- Percent Control [23]: 83%
- Percent Control [24]: 89%
- Percent Control [25]: 92%
- Percent Control [26]: 83%
